Measured values as given in a compilation of properties of binary mixtures (doi:10.1039/b704843b).

Assay: xn = mol fraction of the nth substance listed
Conditions: 101 kPa

Q: What does the source list for `O` + CCCC[n+]1ccn(C)c1.F[P-](F)(F)(F)(F)F?
A: viscosity (298.15 K, x1 = 1): 0.894 mPa·s; viscosity (308.15 K, x1 = 1): 0.717 mPa·s; viscosity (313.15 K, x1 = 1): 0.659 mPa·s

Q: Which viscosity (298.15 K, x1 = 0.0003) does the source give for `CCCC[n+]1ccn(C)c1.F[P-](F)(F)(F)(F)F` + O here?
A: 0.909 mPa·s

Q: And the viscosity (298.15 K, x1 = 0.0006)?
A: 0.917 mPa·s

Q: And the viscosity (298.15 K, x1 = 0.001)?
A: 0.923 mPa·s

Q: And the viscosity (303.15 K, x1 = 0.0003)?
A: 0.809 mPa·s

Q: And the viscosity (303.15 K, x1 = 0.0006)?
A: 0.815 mPa·s

Q: What about the viscosity (303.15 K, x1 = 0.001) of the same compound?
A: 0.822 mPa·s

Q: And the viscosity (303.15 K, x1 = 0.0013)?
A: 0.83 mPa·s

Q: And the viscosity (308.15 K, x1 = 0.0003)?
A: 0.72 mPa·s

Q: What about the viscosity (308.15 K, x1 = 0.0006) of the same compound?
A: 0.725 mPa·s

Q: And the viscosity (308.15 K, x1 = 0.001)?
A: 0.73 mPa·s

Q: What about the viscosity (308.15 K, x1 = 0.0013) of the same compound?
A: 0.737 mPa·s

Q: And the viscosity (313.15 K, x1 = 0.0003)?
A: 0.662 mPa·s

Q: And the viscosity (313.15 K, x1 = 0.0006)?
A: 0.667 mPa·s

Q: And the viscosity (313.15 K, x1 = 0.001)?
A: 0.672 mPa·s

Q: And the viscosity (313.15 K, x1 = 0.0013)?
A: 0.678 mPa·s

Q: What about the viscosity (318.15 K, x1 = 0.0003) of the same compound?
A: 0.604 mPa·s

Q: And the viscosity (318.15 K, x1 = 0.0006)?
A: 0.609 mPa·s

Q: What about the viscosity (318.15 K, x1 = 0.001) of the same compound?
A: 0.614 mPa·s

Q: And the viscosity (318.15 K, x1 = 0.0013)?
A: 0.62 mPa·s
